Reference: US11976083B2, “Inhibitors of peptidylarginine deiminases” (Gilead Sciences, Inc., priority 2020, dated 2024)

target: T1, human PAD4 (Homo sapiens, UniProt Q9UM07); test: In vitro PAD4 BAEE biochemical assay; conditions: BAEE substrate 3 mM, 5 nM PAD4, 2 mM calcium chloride; geometric mean of multiple experiments
T1 construct: human PAD4 (NM_012387), A2-P663, was PCR amplified; His-SUMO (N, cleaved yes); made in house; host or cells: E. coli BL21(DE3)
Summary of the method: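 PAD4 5 nM, CaCl2 2 mM, BAEE 3 mM final; 50 mM MOPS pH 7.6, 50 mM NaCl, 0.05% Tween-20, 2 mM DTT. Cpd + enzyme 30 min 25 °C; substrate 2 h 25 °C; EDTA stop; OPA detection 1 h. IC50 4-parameter fit.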

T1 sequence (Q9UM07 2-663): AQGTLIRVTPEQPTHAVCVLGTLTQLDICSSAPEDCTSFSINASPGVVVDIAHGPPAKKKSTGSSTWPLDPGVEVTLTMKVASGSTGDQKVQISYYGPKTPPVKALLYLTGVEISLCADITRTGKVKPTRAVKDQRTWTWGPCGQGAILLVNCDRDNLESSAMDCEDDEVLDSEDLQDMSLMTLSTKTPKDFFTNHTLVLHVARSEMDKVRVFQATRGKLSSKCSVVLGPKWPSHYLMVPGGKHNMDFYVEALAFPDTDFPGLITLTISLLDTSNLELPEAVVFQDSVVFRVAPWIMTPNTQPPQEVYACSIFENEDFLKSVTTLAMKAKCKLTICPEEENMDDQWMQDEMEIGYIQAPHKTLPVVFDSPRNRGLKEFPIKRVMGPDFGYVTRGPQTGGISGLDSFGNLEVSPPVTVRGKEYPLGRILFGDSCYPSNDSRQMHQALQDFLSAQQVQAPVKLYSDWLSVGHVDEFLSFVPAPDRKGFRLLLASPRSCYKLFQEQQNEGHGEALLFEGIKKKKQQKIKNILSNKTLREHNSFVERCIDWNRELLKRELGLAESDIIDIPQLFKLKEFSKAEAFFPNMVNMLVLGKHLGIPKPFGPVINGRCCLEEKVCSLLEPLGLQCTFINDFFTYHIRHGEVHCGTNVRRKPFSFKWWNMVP

Structure (SMILES) | IC50
C[C@H]1NC(=O)[C@@H]2C[C@@H]2CCCCCn2c(-c3nc4cc(C(=O)N[C@H]5CNCC[C@@H]5F)c(F)cc4n3C3CC3)cc3ccc1nc32 [Example 520, 1-cyclopropyl-6-fluoro-~ {N}-[(3~{S},4~{S})-4-fluoro-3-piperidyl]-2-[(2~{R},5~{R},7~{S})-2-methyl-4-oxo-3,13,19-triazatetracyclo[11.5.2.0^ {5,7}.0^{16,20}]icosa-1(19),14,16(20),17-tetraen-14-yl]benzimidazole-5-carboxamide] | 35 nM
COC[C@]12C[C@H]1CCCCCn1c(-c3nc4cc(C(=O)N5CC[C@@H](OC)[C@@H](N)C5)cc(OC)c4n3C)cc3ccc(nc31)[C@@H](C)NC2=O [Example 864, (2~{R},5~{S),7~{R})-14-[5-[(3~{S},4~{R})-3-amino-4-methoxy-piperidine-1-carbonyl]-7-methoxy-1-methyl-benzimidazol-2-yl]-5-(methoxymethyl)-2-methyl-3,13,19-triazatetracyclo [11.5.2.0^{5,7}.0^{16,20}] icosa-1(19),14,16(20), 17-tetraen-4-one] | 68 nM
COc1cc(C(=O)N2CCC[C@@H](N)C2)cc2nc(-c3cc4ccc5nc4n3C/C=C(/F)COCCC(=O)N[C@@H]5C)n(C)c12 [Example 620, (3~{E},11~{R})-17-[5-[(3~{R})-3-aminopiperidine-1-carbonyl]-7-methoxy-1-methyl-benzimidazol-2-yl]-4-fluoro-11-methyl-6-oxa-1,10,19-triazatricyclo[10.5.2.0^ {15,18}]nonadeca-3,12(19),13,15(18), 16-pentaen-9-one] | 36 nM
COc1cc(C(=O)N[C@H]2CNC[C@H](O)C2)cc2nc(-c3cc4ccc5nc4n3CCCCCCC(C)(C)C(=O)N[C@@H]5C)n(C)c12 [Example 526, ~{N}-[(3~{R},5~{R})-5-hydroxy-3-piperidyl]-7-methoxy-1-methyl-2-[(11~{R})-8,8,11-trimethyl-9-oxo-1,10,19-triazatricyclo [10.5.2.0^{15,18}]nonadeca-12(19),13,15(18),16-tetraen-17-yl]benzimidazole-5-carboxamide] | 65 nM
COc1cc(C(=O)N2CCC[C@@H](N)C2)cn2nc(-c3cc4ccc5nc4n3CCCCCCCC(=O)N[C@@H]5C)c(C)c12 [Example 26, (11~{R})-17-[6-[(3~{R})-3-aminopiperidine-1-carbonyl]-4-methoxy-3-methyl-pyrazolo[1,5-a]pyridin-2-yl]-11-methyl-1,10,19-triazatricyclo[10.5.2.0^{15,18}]nonadeca-12(19),13,15(18),16-tetraen-9-one] | 86 nM
C[C@H]1NC(=O)c2cc(Cl)ncc2CCCCCn2c(-c3nc4cc(C(=O)N[C@H]5CNCC[C@@H]5F)c(F)cc4n3C3CC3)cc3ccc1nc32 [Example 356, 2-[(2~{R})-7-chloro-2-methyl-4-oxo-3,8,16,22-tetrazatetracyclo[14.5.2.0^{5,10).0^{19,23}]tricosa-1(22),5,7,9,17,19(23),20-heptaen-17-yl]-1-cyclopropyl-6-fluoro-~ {N}-[(3~{S},4~{S})-4-fluoro-3-piperidyl]benzimidazole-5-carboxamide] | 37 nM
C[C@H]1NC(=O)C(C)(C)CCCCCCn2c(-c3nc4cc(C(=O)N[C@H]5CNCC[C@@H]5F)c(F)cc4n3CCOC(F)F)cc3ccc1nc32 [Example 502, 1-[2-(difluoromethoxy)ethyl]-6-fluoro-~{N}-[(3~ {S},4~{S})-4-fluoro-3-piperidyl]-2-[(11~{R})-8,8,11-trimethyl-9-oxo-1,10,19-triazatricyclo[10.5.2.0^ {15,18}]nonadeca-12(19),13,15(18),16-tetraen-17-yl]benzimidazole-5-carboxamide] | 128 nM
COc1cc(C(=O)N2C[C@H]3CC[C@@H]2[C@@H]3N)cc2nc(-c3cc4ccc5nc4n3CCCCCC[C@](C)(C(F)(F)F)C(=O)N[C@@H]5C)n(C)c12 [Example 724, (8~{S},11~{R})-17-[5-[(1~{R},4~{R},7~{R})-7-amino-2-azabicyclo[2.2.1]heptane-2-carbonyl]-7-methoxy-1-methyl-benzimidazol-2-yl]-8,11-dimethyl-8-(trifluoromethyl)-1,10,19-triazatricyclo [10.5.2.0^{15,18}]nonadeca-12(19),13,15(18),16-tetraen-9-one] | 94 nM
COc1cc(C(=O)N2[C@H]3CC[C@@H]2[C@H](N)C3)cc2nc(-c3cc4ccc5nc4n3CCCCCC[C@H](C)C(=O)N[C@@H]5C)n(C)c12 [Example 137, (8~{S},11~{R})-17-[5-[(1~{R},2~{R},4~{S})-2-amino-7-azabicyclo[2.2.1]heptane-7-carbonyl]-7-methoxy-1-methyl-benzimidazol-2-yl]-8,11-dimethyl-1,10,19-triazatricyclo[10.5.2.0^{15,18}]nonadeca-12(19),13,15(18),16-tetraen-9-one] | 35 nM

Molecules with a lower IC50, results first:

IC50 | Structure (SMILES)
15 nM | COc1cc(C(=O)N2C[C@H](N)[C@H](O)[C@@H](F)C2)cc2nc(-c3cc4ccc5nc4n3CC(F)(F)CCC[C@@H]3C[C@H]3C(=O)N[C@@H]5C)n(C)c12 [Example 678, (2~{R},5~{R},7~{R})-14-[5-[(3~{S},4~{S},5~ {S})-3-amino-5-fluoro-4-hydroxy-piperidine-1-carbonyl]-7-methoxy-1-methyl-benzimidazol-2-yl]-11,11-difluoro-2-methyl-3,13,19-triazatetracyclo[11.5.2.0^ {5,7}.0^{16,20}]icosa-1(19), 14,16(20),17-tetraen-4-one]
11 nM | COc1cc(C(=O)N2CCC[C@@H](N)[C@H]2C)cc2nc(-c3cc4ccc5nc4n3CC(F)(F)CCC[C@]3(F)C[C@H]3C(=O)N[C@@H]5C)n(C)c12 [Example 703, (2~{R},5~{S},7~{S})-14-[5-[(2~{R},3~{R})-3-amino-2-methyl-piperidine-1-carbonyl]-7-methoxy-1-methyl-benzimidazol-2-yl]-7,11,11-trifluoro-2-methyl-3,13,19-triazatetracyclo[11.5.2.0^ {5,7}.0^{16,20}]icosa-1(19), 14,16(20),17-tetraen-4-one]
27 nM | C[C@H]1NC(=O)[C@@H]2C[C@H]2CCCC(F)(F)Cn2c(-c3nc4cc(C(=O)N5C[C@H](N)[C@@H]6CC[C@H]5C6)cc(F)c4n3[C@@H]3C[C@@H]3F)cc3ccc1nc32 [Example 467, (2~{R},5~{R},7~{R})-14-[(1~{R})-5-[(1~{S},4~{R},5~{R})-4-amino-2-azabicyclo[3.2.1]octane-2-carbonyl]-7-fluoro-1-[(2~{S})-2-fluorocyclopropyl]benzimidazol-2-yl]-11,11-difluoro-2-methyl-3,13,19-triazatetracyclo[11.5.2.0^{5,7}.0^{16,20}] icosa-1(19),14,16(20),17-tetraen-4-one]
20 nM | COc1cc(C(=O)N2C[C@H](N)C[C@@H](F)C2)cc2nc(-c3cc4ccc5nc4n3CC(F)(F)CCC[C@@H]3C[C@H]3C(=O)N[C@@H]5C)n(C)c12 [Example 851, (2~{R},5~{R},7~{R})-14-[5-[(3~{R},5~{R})-3-amino-5-fluoro-piperidine-1-carbonyl]-7-methoxy-1-methyl-benzimidazol-2-yl]-11,11-difluoro-2-methyl-3,13,19-triazatetracyclo[11.5.2.0^ {5,7}.0^{16,20}]icosa-1(19), 14,16(20),17-tetraen-4-one]
12 nM | C[C@H]1NC(=O)[C@@H]2C[C@@]2(F)CCCCCn2c(-c3nc4cc(C(=O)N[C@H]5CNCC[C@@H]5F)c(F)cc4n3C3CC3)cc3ccc1nc32 [Example 388]
